Entries after “also recorded” stand apart in the source; their conditions may differ. Like-named read-outs stand apart in the source and are kept apart here.
Key:
[1] = target: T1, mouse Kv1.3 (Mus musculus, UniProt P16390); experiment: Patch-clamp of heterologous mouse Kv1.3 expressed in L929 cells; format: cell-based
T1 construct: expressed in transfected cells; host or cells: L929 cells
Method: (§1) Patch pipettes, pulled from glass capillaries (inner diameter 1.5 mm, Kimble products) with a horizontal puller (Sutter instruments, Modell P-97), were fire-polished, and had resistances between 2 and 4 MOhm. Patch-clamp experiments were performed in the tight-seal whole-cell configuration at room temperature (22-24° C.). High-resolution current recordings were acquired by a computer-based patch-clamp amplifier system (EPC-9, HEKA). Immediately following establishment of the whole-cell configuration, every two seconds voltage ramps of 50 ms duration spanning the voltage range of −100 to +100 mV for Jurkat T-cells and −150 to +150 mV for HEK293 were delivered from a holding potential (Vh) of −70 mV for Jurkats and 0 mV for HEK293 cells over a period of 300-600 s. […] Capacitive currents and series resistance were determined and corrected before each voltage ramp using the automatic capacitance compensation of the EPC-9. […] Kv1.3 currents in Jurkat T-cells were measured at +80 mV. Heterologously expressed Kv1.1, Kv1.2, Kv1.3, Kv1.5 and Kv3.1 were assessed at +80 mV except in Figure S7, where currents were additionally measured at the more physiological voltage of 0 mV. CRAC currents in HEK293 cells were assessed at −80 mV. […]

[2] = target: T2, Kv1.3 (Homo sapiens, UniProt P22001); experiment: Immunofluorescence colocalization in Jurkat T-cells; format: cell-based; settings: plasma membrane of Jurkat T-cells
T2 construct: endogenous in cells; host or cells: Jurkat T-cells
T2 sequence (P22001 whole entry): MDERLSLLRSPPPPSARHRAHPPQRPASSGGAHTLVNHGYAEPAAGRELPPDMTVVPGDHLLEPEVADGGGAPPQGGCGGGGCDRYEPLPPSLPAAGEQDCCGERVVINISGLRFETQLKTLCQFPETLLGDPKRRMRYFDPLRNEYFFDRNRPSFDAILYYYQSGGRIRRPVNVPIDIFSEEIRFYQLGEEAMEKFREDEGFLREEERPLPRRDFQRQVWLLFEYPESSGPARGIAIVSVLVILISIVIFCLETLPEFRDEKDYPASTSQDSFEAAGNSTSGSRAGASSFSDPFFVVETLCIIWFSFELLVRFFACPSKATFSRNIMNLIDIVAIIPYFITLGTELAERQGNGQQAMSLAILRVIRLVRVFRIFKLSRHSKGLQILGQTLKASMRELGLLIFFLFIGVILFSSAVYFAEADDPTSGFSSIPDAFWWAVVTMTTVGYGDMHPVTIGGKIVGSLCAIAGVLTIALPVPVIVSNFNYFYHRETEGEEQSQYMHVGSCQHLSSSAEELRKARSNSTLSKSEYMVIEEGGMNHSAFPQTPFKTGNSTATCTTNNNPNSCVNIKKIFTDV
Method: Jurkat T-cells treated with clofazimine were centrifuged onto L-lysine-coated coverslips. Cells were fixed with 4% p-formaldehyde for 15 min. The cells were washed in PBS, permeabilized by −20° C. methanol and blocked with 10% donkey serum in PBS. The fixed cells were then incubated with Kv1.3 primary antibody (sc-17239 at 1:100 dilution) for 1 h. Cells were washed in PBS (3×5 min) and incubated with donkey anti-goat Cy5 antibodies for an additional 1 h. Cells were then washed three times in PBS, mounted, and photographed. Mounting was performed using Vectashield mounting medium (Vector Laboratories) and images were captured using either a Zeiss LSM510 confocal microscope. Merged images were compiled using LSM5 Image Examiner or Adobe Photoshop CS.

[3] = target: T3, human Kv1.5 (Homo sapiens, UniProt P22460); experiment: Patch-clamp of heterologous human Kv1.5 expressed in MEL cells; format: cell-based
T3 construct: expressed in transfected cells; host or cells: MEL cells
T3 sequence (P22460 whole entry): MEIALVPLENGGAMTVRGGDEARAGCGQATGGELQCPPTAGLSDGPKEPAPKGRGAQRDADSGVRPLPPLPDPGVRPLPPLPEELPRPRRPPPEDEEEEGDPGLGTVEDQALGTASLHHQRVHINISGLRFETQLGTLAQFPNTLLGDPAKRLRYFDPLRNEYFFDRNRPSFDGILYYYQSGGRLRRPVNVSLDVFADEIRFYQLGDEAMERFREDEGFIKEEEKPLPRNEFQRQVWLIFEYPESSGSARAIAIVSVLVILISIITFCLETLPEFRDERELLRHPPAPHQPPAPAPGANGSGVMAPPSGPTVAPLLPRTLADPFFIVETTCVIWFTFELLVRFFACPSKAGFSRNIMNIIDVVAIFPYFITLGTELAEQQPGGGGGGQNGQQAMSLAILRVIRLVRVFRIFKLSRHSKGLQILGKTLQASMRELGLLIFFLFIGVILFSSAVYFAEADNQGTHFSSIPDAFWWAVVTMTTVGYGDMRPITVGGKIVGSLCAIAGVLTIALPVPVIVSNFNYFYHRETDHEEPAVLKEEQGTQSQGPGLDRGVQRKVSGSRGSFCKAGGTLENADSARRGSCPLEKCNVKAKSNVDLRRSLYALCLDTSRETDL
Method: as §1

[4] = test system: human foreskin graft in Pfp/Rag2−/− mice with human PBL; experiment: Human T-cell-mediated human skin graft rejection in immunodeficient mice; format: in vivo, mouse
Description: Kv1.3 has been implicated in T-cell activation and has served as a molecular target for developing novel immunosuppressive agents. Given that clofazimine is already used in the clinic, albeit for a completely different indication, we wondered whether it is efficacious in animal models of organ transplantation. […] These negative results are not surprising given that Kv1.3 plays distinct roles in humans and rodents, as it has been shown that Kv1.3 is dispensable in mice due to the up-regulation of other chloride channels. […] To overcome this problem, we turned to a model of reconstituted human T-cell-mediated human skin rejection in immunodeficient mice. We thus transplanted human foreskin into Pfb-Rag2−/− mice that lack T, B and NK cells. Upon healing of the skin graft for about 7 days, a total of 100 million human peripheral blood lymphocytes from an unrelated donor were adoptively transferred into the same animals. The animals were treated orally with either DMSO (control) or clofazimine at 50 mg/kg/day for a total of 10 days (FIG. 5A). For the control group, the transplanted foreskin was rejected with a median survival time of 11 days (FIG. 5B).
The experimental procedure is similar to that described previously. Clofazimine suspension in olive oil was administered p.o. at 50 mg/kg/day in a total volume of 0.2 ml per administration.

[5] = test system: NFAT luciferase reporter; experiment: NFAT luciferase reporter assay in Jurkat T-cells; format: cell-based; settings: Homo sapiens, PMA/ionomycin, FIG. 1C, n=6
[6] = target: T4, mouse Kv3.1 (Mus musculus, UniProt P15388); experiment: Patch-clamp of heterologous mouse Kv3.1 expressed in L929 cells; format: cell-based
T4 construct: expressed in transfected cells; host or cells: L929 cells
T4 sequence (P15388 whole entry): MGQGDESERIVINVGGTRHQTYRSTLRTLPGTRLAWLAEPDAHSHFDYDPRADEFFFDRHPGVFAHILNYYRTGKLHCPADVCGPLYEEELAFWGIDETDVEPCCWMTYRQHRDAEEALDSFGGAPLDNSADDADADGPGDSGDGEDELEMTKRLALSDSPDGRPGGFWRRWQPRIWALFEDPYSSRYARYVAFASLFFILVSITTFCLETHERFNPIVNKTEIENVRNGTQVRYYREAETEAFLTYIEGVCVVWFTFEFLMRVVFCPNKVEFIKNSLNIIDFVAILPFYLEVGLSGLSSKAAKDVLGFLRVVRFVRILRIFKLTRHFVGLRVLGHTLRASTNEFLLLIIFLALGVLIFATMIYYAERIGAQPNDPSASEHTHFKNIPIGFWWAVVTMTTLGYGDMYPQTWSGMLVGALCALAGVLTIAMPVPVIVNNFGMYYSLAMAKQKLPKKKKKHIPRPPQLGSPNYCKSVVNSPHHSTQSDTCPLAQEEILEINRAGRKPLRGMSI
Method: as §1

[7] = target: T5, rat Kv1.2 (Rattus norvegicus, UniProt P63142); experiment: Patch-clamp of heterologous rat Kv1.2 expressed in B82 cells; format: cell-based
T5 construct: expressed in transfected cells; host or cells: B82 cells
T5 sequence (P63142 whole entry): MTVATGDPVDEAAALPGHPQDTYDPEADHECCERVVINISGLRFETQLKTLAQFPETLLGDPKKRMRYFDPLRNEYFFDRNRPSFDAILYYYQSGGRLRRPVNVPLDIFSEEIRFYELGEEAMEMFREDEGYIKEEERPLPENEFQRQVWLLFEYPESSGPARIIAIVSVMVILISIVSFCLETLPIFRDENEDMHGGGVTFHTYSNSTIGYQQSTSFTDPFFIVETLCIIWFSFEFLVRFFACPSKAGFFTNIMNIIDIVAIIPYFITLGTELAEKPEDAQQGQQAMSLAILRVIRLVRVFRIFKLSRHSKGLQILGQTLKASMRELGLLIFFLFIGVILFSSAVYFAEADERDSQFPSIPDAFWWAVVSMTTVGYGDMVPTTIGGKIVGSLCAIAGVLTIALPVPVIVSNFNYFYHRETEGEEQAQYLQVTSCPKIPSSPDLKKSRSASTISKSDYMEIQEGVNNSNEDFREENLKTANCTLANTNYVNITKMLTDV
Method: as §1

[8] = test system: EGFP-NFATc3 nuclear translocation; experiment: NFAT nuclear translocation in Jurkat T-cells stimulated by ionomycin; format: cell-based, human; settings: 1 μM ionomycin
[9] = test system: IL-2 proximal promoter driven-luciferase; experiment: IL-2 luciferase reporter assay in Jurkat T-cells (PMA/ionomycin); format: cell-based, human; settings: for IC50: n=6
[10] = test system: calcineurin; experiment: Calcineurin enzymatic activity in vitro; format: biochemical; settings: substrates para-nitrophenylphosphate or immunoprecipitated NFATc2
[11] = test system: AP-1 luciferase reporter; experiment: AP-1 luciferase reporter assay in Jurkat T-cells; format: cell-based, human; settings: PMA/ionomycin, high concentrations (>1 μM for clofazimine)

T1 sequence (P16390 whole entry): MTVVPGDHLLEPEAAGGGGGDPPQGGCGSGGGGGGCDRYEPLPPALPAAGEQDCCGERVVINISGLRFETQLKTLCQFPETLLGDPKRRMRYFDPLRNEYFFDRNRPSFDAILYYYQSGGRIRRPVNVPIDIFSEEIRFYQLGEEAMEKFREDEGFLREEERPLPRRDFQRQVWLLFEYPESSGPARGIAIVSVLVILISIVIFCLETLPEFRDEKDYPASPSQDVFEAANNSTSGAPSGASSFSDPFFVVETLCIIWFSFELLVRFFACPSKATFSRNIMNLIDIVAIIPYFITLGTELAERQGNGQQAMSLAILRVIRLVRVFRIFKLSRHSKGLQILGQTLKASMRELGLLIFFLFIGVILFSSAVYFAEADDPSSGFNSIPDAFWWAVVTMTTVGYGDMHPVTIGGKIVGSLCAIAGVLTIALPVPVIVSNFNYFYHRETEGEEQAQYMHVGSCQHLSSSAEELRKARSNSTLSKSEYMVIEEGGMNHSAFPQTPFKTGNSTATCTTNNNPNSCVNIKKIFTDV

CC(C)/N=c1\cc2n(-c3ccc(Cl)cc3)c3ccccc3nc-2cc1Nc1ccc(Cl)cc1 [clofazimine, Clofazimine]
Hill coefficient, mouse Kv1.3 [1]: 0.5
IC50 ([1]; +80 mV): 470 nM
subcellular localization relative to Kv1.3 [2]: same subcellular localization pattern
subcellular localization relative to Kv1.3 ([2]; listed as Clofazimine): colocalizes with Kv1.3
block of current, human Kv1.5 ([3]; 10 μM): less than 50%
IC50 ([3]; inferred from block at 10 μM): > 10 µM
mean survival time of transplanted human skin ([4]; 50 mg/kg/day orally for 10 days, n=5): 35 days
effect on human T-cell-mediated skin graft rejection ([4]; immunodeficient mice): inhibits human T-cell-mediated skin graft rejection
IC50 [5]: 113 ± 30 nM
block of current, mouse Kv3.1 ([6]; 10 μM): less than 50%
IC50 ([6]; inferred from block at 10 μM): > 10 µM
block of current, rat Kv1.2 ([7]; 10 μM): less than 50%
IC50 ([7]; inferred from block at 10 μM): > 10 µM
effect on NFAT nuclear translocation [8]: blocked the ionomycin-induced nuclear translocation
effect on NFAT nuclear translocation ([8]; listed as Clofazimine): inhibits EGFP-NFATc3 nuclear translocation
IC50 ([9]; Homo sapiens, Jurkat, Kv1.3 overexpression low to high, 1st curve, read-out: IC50, IL-2 luciferase reporter, Kv1.3 overexpression): 41.6 ± 8.4 nM
IC50 ([9]; Homo sapiens, Jurkat, Kv1.3 overexpression low to high, 2nd curve, read-out: IC50, IL-2 luciferase reporter, Kv1.3 overexpression): 41 ± 14.5 nM
IC50 ([9]; Homo sapiens, Jurkat, Kv1.3 overexpression low to high, 3rd curve, read-out: IC50, IL-2 luciferase reporter, Kv1.3 overexpression): 386 ± 214 nM
IC50 ([9]; Homo sapiens, Jurkat, Kv1.3 overexpression low to high, 4th curve, read-out: IC50, IL-2 luciferase reporter, Kv1.3 overexpression): 1370 ± 520 nM
IC50 ([9]; Homo sapiens, Jurkat, Kv1.3 overexpression low to high, 5th (highest) curve, read-out: IC50, IL-2 luciferase reporter, Kv1.3 overexpression): 1460 ± 630 nM
IC50 ([9]; Homo sapiens, Jurkat, PMA/ionomycin-stimulated Jurkat T-cells, FIG. 1A, read-out: IC50, IL-2 luciferase reporter): 21.8 ± 4.4 nM
IC50 ([9]; Homo sapiens, Jurkat, control EGFP-siRNA lentiviral transduced Jurkat T-cells, read-out: IC50, IL-2 luciferase reporter): 49.9 ± 13 nM
IC50 ([9]; Homo sapiens, Jurkat, shKv1.3-4 (Kv1.3 knockdown) transduced Jurkat T-cells, read-out: IC50, IL-2 luciferase reporter): 10.5 ± 2.4 nM
IC50 ([9]; Homo sapiens, Jurkat, PMA/ionomycin, FIG. 1C, read-out: IC50, IL-2 luciferase reporter): 56 ± 14.8 nM
IC50 ([9]; PMA/ionomycin-stimulated Jurkat T-cells, FIG. 1A, read-out: IC50, IL-2 luciferase reporter): 22 nM
increase in IC50 value upon Kv1.3 overexpression ([9]; highest Kv1.3 expression plasmid (2 μg)): 35 fold
decrease in IC50 values upon Kv1.3 knockdown ([9]; shKv1.3-4 vs shRNA against EGFP): ~5 fold
effect on enzymatic activity of calcineurin in vitro [10]: no effect on the enzymatic activity; also recorded: does not inhibit the protein phosphatase activity
effect on AP-1 luciferase reporter [11]: enhanced, rather than inhibited
effect on AP-1 luciferase reporter ([11]; listed as Clofazimine): significantly enhances
